Test results taken from patent US20170333391A1, “METHOD FOR DELAYING THE ONSET OF PULMONARY FIBROSIS OR TREATING PULMONARY FIBROSIS” (EVERFRONT BIOTECH INC., priority 2016, published 2017).

Assays:
α-SMA = α-SMA mRNA expression in NHLF, Q-PCR (3-2); format: cell-based, human; conditions: 24 hours
Protocol: (§1) Normal Human lung fibroblasts (NHLF) were seeded into 6-well plate at a density of 10^5 cells/well, comprising a control group and five experimental groups (6 wells in total). The cells were cultured until the next day, and then the mediums were removed. Each group was respectively treated under the following conditions to conduct follow-up experiments: • (1) Control group: cells were cultured in a FGM-2 medium containing 1% serum for 24 hours; • (2) Group α: cells were cultured in a FGM-2 medium containing 1% serum and compound (1) (5 μg/ml) for 24 hours; • (3) Group β: cells were cultured in a FGM-2 medium containing 1% serum and compound (1) (10 μg/ml) for 24 hours; • (4) Group γ: cells were cultured in a F-12K medium containing 1% serum and H2O2 (0.1 mM) for 24 hours; • (5) Group δ: cells were cultured in a F-12K medium containing 1% serum, H2O2 (0.1 mM) and compound (1) (5 μg/ml) for 24 hours; and • (6) Group ε: cells were cultured in a F-12K medium containing 1% serum, H2O2 (0.1 mM) and compound (1) (10 μg/ml) for 24 hours.
(§2) Thereafter, the total RNA of cells taken from each group were extracted, and then reverse transcription was conducted on the total RNA by using a QuantiTect Reverse Transcription Kit to obtain cDNA therefrom. A Q-PCR was then conducted on the cDNA to analyze the mRNA expression levels of genes such as α-SMA and TGF-β, wherein GAPDH gene served as an internal control. The results of the control group served as the basis for calculating the relative expression levels of the other groups.

BMP-7 protein = BMP-7 protein expression in TGF-β1-induced NHLF, western blotting (Example 4); format: cell-based, human; conditions: uninduced control = 1, TGF-β1-only group A = 0.19
Protocol: (§3) Normal Human lung fibroblasts (NHLF) were seeded into 6 cm culture dishes at a density of 2×10^5 cells/dish, comprising a control group and five experimental groups (6 dishes in total). The cells were cultured until the next day, and then the mediums were removed. Each group was respectively treated under the following conditions to conduct follow-up experiments: • (1) Control group: cells were cultured in a FGM-2 medium containing 1% serum for 36 hours; • (2) Group A: cells were cultured in a FGM-2 medium containing 1% serum and TGF-β1 (5 ng/ml) for 36 hours; • (3) Group B: cells were firstly cultured in a FGM-2 medium containing 1% serum and TGF-β1 (5 ng/ml) for 12 hours, and then compound (1) was added into the medium to provide a final concentration of 15 μg/ml; thereafter, the cells were cultured for another 24 hours; • (4) Group C: cells were firstly cultured in a FGM-2 medium containing 1% serum and TGF-β1 (5 ng/ml) for 12 hours, and then compound (1) was added into the medium to provide a final concentration of 30 μg/ml; thereafter, the cells were cultured for another 24 hours; • (5) Group D: cells were firstly cultured in a FGM-2 medium containing 1% serum and TGF-β1 (5 ng/ml) for 12 hours, and then compound (2) was added into the medium to provide a final concentration of 100 μg/ml; thereafter, the cells were cultured for another 24 hours; and • (6) Group E: cells were firstly cultured in a FGM-2 medium containing 1% serum and TGF-β1 (5 ng/ml) for 12 hours, and then compound (2) was added into the medium to provide a final concentration of 200 μg/ml; thereafter, the cells were cultured for another 24 hours.
(§4) Thereafter, the proteins in the cells of each group were extracted, and the expressions of BMP-7 protein, TGF-β protein and p-smad2/3 protein in the NHLF cells of each group were measured with western blotting. The results of the control group served as the basis for calculating the relative expression levels of the other groups.

TGF-β protein = TGF-β protein expression in TGF-β1-induced NHLF, western blotting (Example 4); format: cell-based, human; conditions: uninduced control = 1, TGF-β1-only group A = 1.75
Protocol: as §3, §4

surfactant C = surfactant C in mouse pulmonary tissue, western blotting; format: in vivo, mice; conditions: compared to oil group
Protocol: 24 C57B/L6 mice (age: four weeks) were separated into four groups (6 mice in each group). […]
The samples of mice pulmonary tissue provided by Example 7 and preserved at −20° C. were removed from storage, and then ground in liquid nitrogen. […] The expressions of TGF-β protein, smad3 protein and surfactant C in the samples of each group were measured with western blotting, wherein the actin served as an internal control.

TGF-β = TGF-β mRNA expression in NHLF, Q-PCR (3-2); format: cell-based, human; conditions: 24 hours
Protocol: as §1, §2

[1] = Group α: mRNA, FGM-2 medium 1% serum + compound (1) 5 μg/ml, control group = 1
[2] = Group β: mRNA, FGM-2 medium 1% serum + compound (1) 10 μg/ml, control group = 1
[3] = Group B: TGF-β1 5 ng/ml 12 h, then compound (1) 15 μg/ml 24 h
[4] = Group C: TGF-β1 5 ng/ml 12 h, then compound (1) 30 μg/ml 24 h

CCCC=C1OC(=O)c2ccccc21 [compound (1)]
Relative expression level (fold) α-SMA (α-SMA; [1]): 0.46 fold | Relative expression level (fold) α-SMA (α-SMA; [2]): 0.64 fold | Relative expression level (fold) α-SMA (α-SMA; Group δ: mRNA, F-12K medium 1% serum + H2O2 0.1 mM + compound (1) 5 μg/ml, control group = 1, H2O2-only group γ = 0.92): 0.56 fold | Relative expression level (fold) α-SMA (α-SMA; Group ε: mRNA, F-12K medium 1% serum + H2O2 0.1 mM + compound (1) 10 μg/ml, control group = 1, H2O2-only group γ = 0.92): 0.37 fold | Relative expression level (fold) BMP-7 protein (BMP-7 protein; [3]): 0.68 fold | Relative expression level (fold) BMP-7 protein (BMP-7 protein; [4]): 0.31 fold | Relative expression level (fold) TGF-β protein (TGF-β protein; [3]): 1.27 fold | Relative expression level (fold) TGF-β protein (TGF-β protein; [4]): 1.34 fold | expression level of surfactant C in pulmonary tissue (surfactant C; High-dose group, compound (1) 50 mg/kg orally daily 30 days): significantly higher | expression level of surfactant C in pulmonary tissue (surfactant C; Low-dose group, compound (1) 10 mg/kg orally daily 30 days): significantly higher | Relative expression level (fold) TGF-β (TGF-β; [1]): 0.61 fold | Relative expression level (fold) TGF-β (TGF-β; [2]): 0.12 fold | Relative expression level (fold) TGF-β (TGF-β; Group δ: mRNA, F-12K medium 1% serum + H2O2 0.1 mM + compound (1) 5 μg/ml, control group = 1, H2O2-only group γ = 0.34): 0.42 fold | Relative expression level (fold) TGF-β (TGF-β; Group ε: mRNA, F-12K medium 1% serum + H2O2 0.1 mM + compound (1) 10 μg/ml, control group = 1, H2O2-only group γ = 0.34): 0.04 fold
